Test results as given in US20260263567A1, “TUMOUR SENSITISATION TO CHECKPOINT INHIBITORS WITH REDOX STATUS MODIFIER” (CANCER RESEARCH TECHNOLOGY LIMITED, priority 2022, published 2026).
Like-named read-outs stand apart in the source and are kept apart here.

Tests used:
[1] = tested on: B78-D14 m.12,436^80% cells; test: Cell sensitivity to inhibitors (IC50 from final confluency, IncuCyte); type: cell-based, mouse; conditions: for IC50: Mus musculus
Description: (§1) Cells were plated in a 96-well plate at 500 cells/well in 200 μL of cell culture media. Plates were incubated overnight at 37° C. and 5% CO2. The following day, media was replaced with 0-100 mM 2-DG in quadruplicate. Plates were imaged once every 4 hrs on the IncuCyte Zoom (Essen Bioscience) for 5 days. Final confluency measurements were calculated using the system algorithm and the IC50 was determined by GraphPad Prism.

[2] = tested on: B78-D14 m.12,436^60% cells; test: as above; type: cell-based, mouse; conditions: for IC50: Mus musculus
Description: as §1

[3] = tested on: B78-D14 m.11,944^60% cells; test: as above; type: cell-based, mouse; conditions: for IC50: Mus musculus
Description: as §1

B78-D14 wild-type cells = test: as above; type: cell-based; conditions: Mus musculus
Description: as §1

metastatic melanoma [4] = conditions: of the 15 responders; cited from earlier work
metastatic melanoma [5] = test: Response of metastatic melanoma patient cohort (Riaz et al.) to nivolumab, stratified by tumour mtDNA mutation status; type: in vivo, human
Excerpt: Mutation calls and calculated heteroplasmy were used to assign patients to mtDNA wildtype, <50% VAF or >50% VAF groups.

Hcmel12 tumours = test: Manipulation of tumour-associated neutrophils with G-CSF or anti-Ly6G, with or without anti-PD1, in Hcmel12 tumours; type: in vivo, mouse
Description: To determine if neutrophil depletions were necessary for observed sensitivity to ICB, the inventors chose to manipulate the proportion of tumour-associated neutrophils using G-CSF and anti-Ly6G treatments. Hcmel12 wild-type, m.12,436^83% and cytoLbNOX cells were allografted into C57BL/6 mice and were put on G-CSF or anti-Ly6G treatment with or without antiPD1 (FIG. 43A).
For immunotherapy experiments, mice were put on a dosing regimen of 200 μg of anti-PD1 given intraperitoneally twice a week. The first dose was given 7 days post-injection and all mice were sacrificed at 21 or 13 days post-injection for B78 or HcMel12 cells respectively. Either 5 μg mouse recombinant G-CSF (Stemcell) or 100 μg anti-mouse Ly6G—clone 1A8 (2B Scientific) was given intraperitoneally every 2 days post-engraftment to mice for neutrophil depletion experiments.

[6] = m.12,436^80% cells, read-out: IC50
[7] = m.12,436^60% cells, read-out: IC50
[8] = wild-type cells, read-out: IC50
[9] = printed as mt.11944^80%, read-out: IC50

Molecule: O=CC[C@@H](O)[C@H](O)[C@H](O)CO [2-DG, 2-deoxyglucose]
- IC50 [1, 6]: 460 µM
- sensitivity compared with wild-type cells ([1]; m.12,436^80% cells): further enhanced
- IC50 [2, 7]: 810 µM
- sensitivity compared with wild-type cells ([2]; m.12,436^60% cells): more sensitive
- IC50 ([3]; m.11,944^60% cells, read-out: IC50): 1040 µM
- sensitivity compared with wild-type cells ([3]; m.11,944^60% cells): more sensitive
- IC50 (B78-D14 wild-type cells; [8]): 1620 µM

Molecule: CN(C)C(=N)N=C(N)N [metformin]
- IC50 [1, 6]: 5890 ± 710 µM
- sensitivity compared with wild-type cells ([1]; m.12,436^80% cells): enhanced sensitivity
- IC50 [2, 7]: 16600 ± 2430 µM
- sensitivity compared with wild-type cells ([2]; m.12,436^60% cells): enhanced sensitivity
- IC50 [3, 9]: 22900 ± 700 µM
- sensitivity compared with wild-type cells ([3]; m.11,944^60% cells): enhanced sensitivity
- IC50 (B78-D14 wild-type cells; [8]): 26300 ± 1490 µM

Molecule: CC[C@H]1/C=C/C=C/C[C@@H](C)[C@H](O)[C@@](C)(O)C(=O)[C@@H](C)[C@H](O)[C@@H](C)C(=O)[C@@H](C)[C@H](O)[C@@H](C)/C=C/C(=O)O[C@@H]2[C@H](C)[C@H](CC1)O[C@]1(CC[C@H](C)[C@H](C[C@@H](C)O)O1)[C@H]2C [oligomycin]
- IC50 ([1]; mt.12436^80% cells, read-out: IC50): 7.75 ± 0.56 µM
- sensitivity compared with wild-type cells ([1]; m.12,436^80% cells): None of the mutants demonstrated differential sensitivity
- IC50 ([2]; mt.12436^60% cells, read-out: IC50): 13.5 ± 3.32 µM
- sensitivity compared with wild-type cells ([2]; m.12,436^60% cells): None of the mutants demonstrated differential sensitivity
- IC50 [3, 9]: 13.5 ± 3.32 µM
- sensitivity compared with wild-type cells ([3]; m.11,944^60% cells): None of the mutants demonstrated differential sensitivity
- IC50 (B78-D14 wild-type cells; [8]): 13.8 ± 3.8 µM

Molecule: C=C(C)[C@H]1Cc2c(ccc3c2O[C@@H]2COc4cc(OC)c(OC)cc4[C@@H]2C3=O)O1 [rotenone]
- IC50 [1]: 0.493 ± 0.108 µM
- sensitivity compared with wild-type cells ([1]; m.12,436^80% cells): resistance compared to wild type
- IC50 [2]: 0.235 ± 0.035 µM
- sensitivity compared with wild-type cells ([2]; m.12,436^60% cells): not differentially sensitive
- IC50 [3]: 0.205 ± 0.033 µM
- sensitivity compared with wild-type cells ([3]; m.11,944^60% cells): not differentially sensitive
- IC50 (B78-D14 wild-type cells): 0.236 ± 0.026 µM

Molecule: nivolumab
- complete responses (metastatic melanoma [4]): 3
- partial responses (metastatic melanoma [4]): 12
- tumours responding (metastatic melanoma [5]; <50% VAF tumours): 17%
- tumours responding (metastatic melanoma [5]; >50% VAF tumours): 40%
- likelihood to respond, >50% VAF tumours versus mtDNA wild-type or low VAF tumours (metastatic melanoma [5]; Example 1 analysis): 2.5 ×
- rate of response of >50% VAF cancers versus wild-type or <50% VAF cancer (metastatic melanoma [5]; Example 2 analysis): 2.6 fold
- cohort response rate, partial or complete responses (metastatic melanoma [5]; mtDNA mutation status-naive cohort, 70 patients): 22%
- complete responders categorised as >50% VAF (metastatic melanoma [5]; out of the 3 complete responders): 2

B1: G-CSF: mouse recombinant G-CSF (Stemcell) (protein, UniProt P09920 31-208, looked up)
Granulocyte …: VPLVTVSALPPSLPLPRSFLLKSLEQVRKIQASGSVLLEQLCATYKLCHPEELVLLGHSLGIPKASLSGCSSQALQQTQCLSQLHSGLCLYQGLLQALSGISPALAPTLDLLQLDVANFATTIWQQMENLGVAPTVQPTQSAMPAFTSAFQRRAGGVLAISYLQGFLETARLALHHLA
- tumour-associated neutrophil proportions (Hcmel12 tumours; across genotypes): increases
- sensitivity of tumours to anti-PD1 (Hcmel12 tumours; m.12,436^83% and cytoLbNOX tumours, G-CSF plus anti-PD1): abolished sensitivity
- tumour weight versus untreated tumours at the same end-point (Hcmel12 tumours; without anti-PD1): did not affect tumour weight
